US9458181B2, “Cathepsin cysteine protease inhibitors” (Merck Sharp & Dohme Corp., priority 2013, dated 2016)

What was measured:
human cathepsin K = human cathepsin K (UniProt P43236); experiment: Cathepsin K Assay (hrbCat K); type: biochemical; settings: human cathepsin K 0.4 nM, Z-Leu-Arg-AMC 8 μM, pH 5.5, 15 min preincubation; read-out: hrbCat K IP
Procedure, shortened: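 Human cathepsin K (0.4 nM) in pH 5.5 MES buffer with EDTA, DTT and 10% DMSO was preincubated 15 min at room temperature with compound from a ⅓ dilution series (500-0.025 μM DMSO stocks). Z-Leu-Arg-AMC (8 μM) was then added, and AMC release was followed fluorometrically (Ex 360/Em 460 nm) for 30 min; inhibition was fitted to a dose-response model.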

human cathepsin F = biological target: T1, human cathepsin F (Homo sapiens, UniProt Q9UBX1); experiment: Cathepsin F assay (hCat F); type: biochemical; settings: human cathepsin F 10 nM, Z-Phe-Arg-AMC 8 μM, pH 5.5, 15 min preincubation; read-out: hCat F IP
T1 sequence (Q9UBX1 271-484): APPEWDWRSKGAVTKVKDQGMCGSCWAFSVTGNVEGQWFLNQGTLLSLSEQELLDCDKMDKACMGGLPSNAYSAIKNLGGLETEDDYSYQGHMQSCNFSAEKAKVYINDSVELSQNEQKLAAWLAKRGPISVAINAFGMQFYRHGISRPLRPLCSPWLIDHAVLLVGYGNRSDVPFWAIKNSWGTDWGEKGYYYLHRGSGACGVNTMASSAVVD
Procedure, shortened: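 Fluorogenic read-out: cleavage of Z-Phe-Arg-AMC (8 μM in added buffer) was followed at Ex 360/Em 460 nm for 20 min, with dose-response fitting of percent inhibition. Before substrate addition, 10 nM human enzyme was incubated 15 min at room temperature with compounds (DMSO stocks 500–0.025 μM) in pH 5.5 MES/EDTA/DTT buffer containing 10% DMSO.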

Compound	IC50 (human cathepsin K) [nM]	IC50 (human cathepsin F) [nM]
N#CC1(NC(=O)[C@@H]2CCCC[C@H]2c2oc(-c3ccccc3C(F)(F)F)nc2-c2ccc(N3CCS(=O)(=O)CC3)cc2)CC1 [Example 69, (1R,2R)-N-(1-cyanocyclopropyl)-2-(4-(4-(1,1-dioxidothiomorpholino)phenyl)-2-(2-(trifluoromethyl)phenyl)oxazol-5-yl)cyclohexanecarboxamide]	2.94	827
COc1ccc(-c2nc(-c3ccc(N4CCS(=O)(=O)CC4)cc3)c([C@@H]3CCCC[C@H]3C(=O)NC3(C#N)CC3)o2)cc1 [Example 70]	1.84	734
COc1cccc(-c2nc(-c3ccc(N4CCS(=O)(=O)CC4)cc3)c([C@@H]3CCCC[C@H]3C(=O)NC3(C#N)CC3)o2)c1 [Example 71, (1R,2R)-N-(1-cyanocyclopropyl)-2-(4-(4-(1,1-dioxidothiomorpholino)phenyl)-2-(3-methoxyphenyl)oxazol-5-yl)cyclohexanecarboxamide]	1.59	511
COc1ccccc1-c1nc(-c2ccc(N3CCS(=O)(=O)CC3)cc2)c([C@@H]2CCCC[C@H]2C(=O)NC2(C#N)CC2)o1 [Example 72, (1R,2R)-N-(1-cyanocyclopropyl)-2-(4-(4-(1,1-dioxidothiomorpholino)phenyl)-2-(2-methoxyphenyl)oxazol-5-yl)cyclohexanecarboxamide]	1.49	750
Cc1ncc(-c2nc(-c3ccc(N4CCS(=O)(=O)CC4)cc3)c([C@@H]3CCCC[C@H]3C(=O)NC3(C#N)CC3)o2)s1 [Example 73, (1R,2R)-N-(1-cyanocyclopropyl)-2-(4-(4-(1,1-dioxidothiomorpholino)phenyl)-2-(2-methylthiazol-5-yl)oxazol-5-yl)cyclohexanecarboxamide]	1.42	1490
N#Cc1ccc(-c2nc(-c3ccc(N4CCS(=O)(=O)CC4)cc3)c([C@@H]3CCCC[C@H]3C(=O)NC3(C#N)CC3)o2)cc1 [Example 74, (1R,2R)-N-(1-cyanocyclopropyl)-2-(2-(4-cyanophenyl)-4-(4-(1,1-dioxidothiomorpholino)phenyl)oxazol-5-yl)cyclohexanecarboxamide]	1.46	645
N#CC1(NC(=O)[C@@H]2CCCC[C@H]2c2oc(-c3ccccc3Cl)nc2-c2ccc(N3CCS(=O)(=O)CC3)cc2)CC1 [Example 75, (1R,2R)-2-(2-(2-chlorophenyl)-4-(4-(1,1-dioxidothiomorpholino)phenyl)oxazol-5-yl)-N-(1-cyanocyclopropyl) cyclohexanecarboxamide]	2.06	865
N#CC1(NC(=O)[C@@H]2CCCC[C@H]2c2oc(-c3nccs3)nc2-c2ccc(N3CCS(=O)(=O)CC3)cc2)CC1 [Example 78, (1R,2R)-N-(1-cyanocyclopropyl)-2-(4-(4-(1,1-dioxidothiomorpholino)phenyl)-2-(thiazol-2-yl)oxazol-5-yl)cyclohexanecarboxamide]	2.49	2650
N#CC1(NC(=O)[C@@H]2CCCC[C@H]2c2oc(-c3ncccc3C(F)(F)F)nc2-c2ccc(N3CCS(=O)(=O)CC3)cc2)CC1 [Example 80, (1R,2R)-N-(1-cyanocyclopropyl)-2-(4-(4-(1,1-dioxidothiomorpholino)phenyl)-2-(3-(trifluoromethyl)pyridin-2-yl)oxazol-5-yl)cyclohexanecarboxamide]	2.43	1490
N#CC1(NC(=O)[C@@H]2CCCC[C@H]2c2oc(-c3ccc(C(F)(F)F)cn3)nc2-c2ccc(N3CCS(=O)(=O)CC3)cc2)CC1 [Example 81, (1R,2R)-N-(1-cyanocyclopropyl)-2-(4-(4-(1,1-dioxidothiomorpholino)phenyl)-2-(5-(trifluoromethyl)pyridin-2-yl)oxazol-5-yl)cyclohexanecarboxamide]	2.99	3060
Cc1nccc(-c2nc(-c3ccc(N4CCS(=O)(=O)CC4)cc3)c([C@@H]3CCCC[C@H]3C(=O)NC3(C#N)CC3)o2)n1 [Example 82, (1R,2R)-N-(1-cyanocyclopropyl)-2-(4-(4-(1,1-dioxidothiomorpholino)phenyl)-2-(2-methylpyrimidin-4-yl)oxazol-5-yl)cyclohexanecarboxamide]	2.66	5140
N#CC1(NC(=O)[C@@H]2CCCC[C@H]2c2oc(-c3cc(C(F)(F)F)ccn3)nc2-c2ccc(N3CCS(=O)(=O)CC3)cc2)CC1 [Example 83, (1R,2R)-N-(1-cyanocyclopropyl)-2-(4-(4-(1,1-dioxidothiomorpholino)phenyl)-2-(4-(trifluoromethyl)pyridin-2-yl)oxazol-5-yl)cyclohexanecarboxamide]	1.3	4150
N#CC1(NC(=O)[C@@H]2CCCC[C@H]2c2oc(-c3ncccc3F)nc2-c2ccc(N3CCS(=O)(=O)CC3)cc2)CC1 [Example 84, (1R,2R)-N-(1-cyanocyclopropyl)-2-(4-(4-(1,1-dioxidothiomorpholino)phenyl)-2-(3-fluoropyridin-2-yl)oxazol-5-yl)cyclohexanecarboxamide]	2.92	4230
N#CC1(NC(=O)[C@@H]2CCCC[C@H]2c2oc(-c3cnc(C(F)(F)F)nc3)nc2-c2ccc(N3CCS(=O)(=O)CC3)cc2)CC1 [Example 85, (1R,2R)-N-(1-cyanocyclopropyl)-2-(4-(4-(1,1-dioxidothiomorpholino)phenyl)-2-(2-(trifluoromethyl)pyrimidin-5-yl)oxazol-5-yl)cyclohexanecarboxamide]	1.57	2520
N#CC1(NC(=O)[C@@H]2CCCC[C@H]2c2oc(-c3cccc(OC(F)(F)F)c3)nc2-c2ccc(N3CCS(=O)(=O)CC3)cc2)CC1 [Example 86, (1R,2R)-N-(1-cyanocyclopropyl)-2-(4-(4-(1,1-dioxidothiomorpholino)phenyl)-2-(3-(trifluoromethoxy)phenyl)oxazol-5-yl)cyclohexanecarboxamide]	2.62	1830
N#CC1(NC(=O)[C@@H]2CCCC[C@H]2c2oc(-c3cncc(C(F)(F)F)c3)nc2-c2ccc(N3CCS(=O)(=O)CC3)cc2)CC1 [Example 88, (1R,2R)-N-(1-cyanocyclopropyl)-2-(4-(4-(1,1-dioxidothiomorpholino)phenyl)-2-(5-(trifluoromethyl)pyridin-3-yl)oxazol-5-yl)cyclohexanecarboxamide]	2.21	2380

Now from value to compound:

IC50 (human cathepsin K) [nM]	IC50 (human cathepsin F) [nM]	Compound
1.04	573	N#CC1(NC(=O)[C@@H]2CCCC[C@H]2c2oc(-c3ccc(OC(F)F)cc3)nc2-c2ccc(N3CCS(=O)(=O)CC3)cc2)CC1 [Example 64, (1R,2R)-N-(1-cyanocyclopropyl)-2-(2-(4-(difluoromethoxy)phenyl)-4-(4-(1,1-dioxidothiomorpholino)phenyl)oxazol-5-yl)cyclohexanecarboxamide]
1.3	825	N#CC1(NC(=O)[C@@H]2CCCC[C@H]2c2oc(-c3ccc(C(F)(F)F)cc3)nc2-c2ccc(N3CCS(=O)(=O)CC3)cc2)CC1 [Example 65, (1R,2R)-N-(1-cyanocyclopropyl)-2-(4-(4-(1,1-dioxidothiomorpholino)phenyl)-2-(4-(trifluoromethyl)phenyl)oxazol-5-yl)cyclohexanecarboxamide]
1.21	454	N#CC1(NC(=O)[C@@H]2CCCC[C@H]2c2oc(-c3cccc(C(F)(F)F)c3)nc2-c2ccc(N3CCS(=O)(=O)CC3)cc2)CC1 [Example 66, (1R,2R)-N-(1-cyanocyclopropyl)-2-(4-(4-(1,1-dioxidothiomorpholino)phenyl)-2-(3-(trifluoromethyl)phenyl)oxazol-5-yl)cyclohexanecarboxamide]
0.57	619	N#CC1(NC(=O)[C@@H]2CCCC[C@H]2c2oc(-c3ccccc3F)nc2-c2ccc(N3CCS(=O)(=O)CC3)cc2)CC1 [Example 67, (1R,2R)-N-(1-cyanocyclopropyl)-2-(4-(4-(1,1-dioxidothiomorpholino)phenyl)-2-(2-fluorophenyl)oxazol-5-yl)cyclohexanecarboxamide]
1.04	502	N#CC1(NC(=O)[C@@H]2CCCC[C@H]2c2oc(-c3cccc(OC(F)F)c3)nc2-c2ccc(N3CCS(=O)(=O)CC3)cc2)CC1 [Example 68, (1R,2R)-N-(1-cyanocyclopropyl)-2-(2-(3-(difluoromethoxy)phenyl)-4-(4-(1,1-dioxidothiomorpholino)phenyl)oxazol-5-yl)cyclohexanecarboxamide]
0.65	533	N#CC1(NC(=O)[C@@H]2CCCC[C@H]2c2oc(-c3cccc(C4CC4)c3)nc2-c2ccc(N3CCS(=O)(=O)CC3)cc2)CC1 [Example 77, (1R,2R)-N-(1-cyanocyclopropyl)-2-(2-(3-cyclopropylphenyl)-4-(4-(1,1-dioxidothiomorpholino)phenyl)oxazol-5-yl)cyclohexanecarboxamide]
0.51	124	N#CC1(NC(=O)[C@@H]2CCCC[C@H]2c2oc(-c3ccccc3C3CC3)nc2-c2ccc(N3CCS(=O)(=O)CC3)cc2)CC1 [Example 79, (1R,2R)-N-(1-cyanocyclopropyl)-2-(2-(2-cyclopropylphenyl)-4-(4-(1,1-dioxidothiomorpholino)phenyl)oxazol-5-yl)cyclohexanecarboxamide]
